According to PubChem BioAssay AID1963446 (Molecular Pharmacology Branch, DTP, NCI, 2024):
Several values for one entry are separate records, joined by “and”; a condition that tells them apart may be missing. Equal values may be shown once.

System: 993429-296-R-J1-PDC complex spheroid growth, percent test/control
Test: Anticancer human tumor 993429-296-R-J1-PDC patient-derived uterine sarcoma cell line growth inhibition [Asc]
Conditions: for viability, T/C: stronger effect = lower value
Description: Multicellular complex tumor spheroid response to apoptosis pathway targeting inhibitors Alrizomadlin, Pelcitoclax, and Dasminapant in combination with a variety of drugs and investigational agents in selected tumor cell lines
The MDM2 inhibitor alrizomadlin, the Bcl-2/Bcl-xL inhibitor pelcitoclax, and the IAPs inhibitor dasminapant were evaluated both individually and in combination with standard of care and investigational anticancer small molecules within a complex spheroid model of solid tumors. . Complex spheroids include a stromal component modeled by human endothelial cells (HUVEC) and fibroblasts modeled by human mesenchymal stem cells (MSCs). The concentration ranges selected for each drug and investigational agent were based upon clinically achievable concentrations if the clinical Cmax of the agent was known.
Compounds. The drugs and investigational agents: alrizomadlin (APG-115; NSC831270), pelcitoclax (APG-1252; NSC835773), dasminapant (APG-1387;NSC834197), TAK-243 (NSC785004), copanlisib (NSC809693), olaparib (NSC753686), talazoparib (NSC767125), cobimetinib (NSC 768068), eltanexor (KPT-8602, NSC 794443), abemaciclib (NSC 768073), sotorasib (NSC818433), adagrasib (NSC 831453), MRTX-1133 (NSC 836407), Iadademestat (ORY1001, NSC 806812), and RMC-4630 (NSC839698), were obtained from the NCI Developmental Therapeutics Program Chemical Repository. The FDA-approved anticancer drug set is available from the Developmental Therapeutics Program at https://dtp.cancer.gov/organization/dscb/obtaining/available plates.htm. […] The stock solutions were prepared in dimethyl sulfoxide (DMSO, Sigma-Aldrich, St. Louis, MO, cat. D2650) at 800-fold the tested concentration and stored at -70 degrees C prior to their use. All drugs and investigational agents were tested over a range starting from a high concentration at or near the clinical Cmax and decreasing in half-log increments. If the clinical Cmax for an agent had not been determined, the highest concentration tested was 10 microM.
The patient-derived cancer (PDC) cell lines include five colon adenocarcinomas: 186277-243-T-J2-PDC, 616215-338-R-J1-PDC, 439559-082-T-J2-PDC, 463943-066-T-J2-PDC, and 519858-162-T-J1-PDC; three pancreatic carcinomas: 323965-272-R-J2-PDC, 521955-158-R6-J3-PDC, and 521955-158-R2-J5-PDC; two uterine sarcomas: 327498-152-R-J2-PDC and 993429-296-R-J1-PDC; two rhabdomyosarcomas: 755483-174-R-J1-PDC and 772245-204-R-J1-PDC; two soft tissue sarcomas: 126254-015-R-J1-PDC and 494315-158-R-J1-PDC; two malignant fibrous histiocytomas: 317291-083-R-J1-PDC and 596521-263-R-J1-PDC; two breast carcinomas: 171881-019-R-J1-PDC and 885512-296-R-J2-PDC; and one ovarian carcinoma: 6556581-035-R-J-PDC were obtained from the NCI PDMR, (https://pdmr.cancer.gov). The established cell lines HSSY-2 synovial sarcoma (RRID:CVCL 8719), SYO-1 synovial sarcoma (RRID:CVCL_7146), MPNST malignant peripheral neural sheath tumor were obtained from the Sloan Kettering Institute. The following established cell lines were purchased from the American Type Culture Collection (ATCC, Manassas, VA), Sor the received from the NCI repository:, PANC-1 pancreatic carcinoma (CRL-1469, RRID:CVCL_0480), OVCAR-5 ovarian carcinoma (RRID:CVCL_1628), OVCAR-8 ovarian carcinoma (RRID:CVCL_1629), , MCF-7 breast carcinoma (CRL-12584, RRID:CVCL_0031), MDA-MB-231 breast carcinoma (CRL-12532, RRID:CVCL_0062), NCI-H1876 small cell lung carcinoma (CRL-5902, RRID:CVCL_1503), NCI-H510A small cell lung carcinoma (HTB-184, RRID:CVCL_1565), NCI-H1417 (CRL-5869, RRID:CVCL_1469), and NCI-H196 small cell lung carcinoma (CRL-5823, RRID:CVCL_1509). Dr. Peter Houghton (Greehey Children's Cancer Research Institute, University of Texas Health Science Center, San Antonio, TX) provided Rh-18 rhabdomyosarcoma (RRID:CVCL_1659). Pooled donor human umbilical vein endothelial cells (HUVEC, Lonza, cat. CC-2519) and human mesenchymal stem cells (hMSC, Lonza, cat. PT-2501) were purchased from Lonza (Walkersville, MD).
Cell Culture. […]
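Also: spheroids exposed to compounds for seven days.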

C#Cc1c(F)ccc2cc(O)cc(-c3ncc4c(N5CC6CCC(C5)N6)nc(OCC56CCCN5CC(F)C6)nc4c3F)c12 (configuration not stated) + CCN1C(C(=O)NC23CCC(C(=O)O)(CC2)CC3)C(c2cccc(Cl)c2F)C2(C(=O)Nc3cc(Cl)ccc32)C12CCCCC2
IC50 (curve of first compound, second compound 0.03 µM): 5.14 µM | IC50 (curve of first compound, second compound 0.0949 µM): 5.4 µM | IC50 (curve of first compound, second compound 0.3 µM): 5.55 µM | IC50 (curve of first compound, second compound 0.949 µM): 5.32 µM | IC50 (curve of first compound, second compound 3 µM): 4.94 µM | viability, T/C (second compound 0.03 µM, first compound 0.0316 µM): 93.3% | viability, T/C (second compound 0.03 µM, first compound 0.1 µM): 96.5% | viability, T/C (second compound 0.03 µM, first compound 0.316 µM): 106% | viability, T/C (second compound 0.03 µM, first compound 1 µM): 84% | viability, T/C (second compound 0.03 µM, first compound 3.16 µM): 86.3% | viability, T/C (second compound 0.03 µM, first compound 10 µM): 2.52% | viability, T/C (second compound 0.0949 µM, first compound 0.0316 µM): 96.1% | viability, T/C (second compound 0.0949 µM, first compound 0.1 µM): 95.4% | viability, T/C (second compound 0.0949 µM, first compound 0.316 µM): 83.8% | viability, T/C (second compound 0.0949 µM, first compound 1 µM): 115% | viability, T/C (second compound 0.0949 µM, first compound 3.16 µM): 86.2% | viability, T/C (second compound 0.0949 µM, first compound 10 µM): 8.51% | viability, T/C (second compound 0.3 µM, first compound 0.0316 µM): 87.8% | viability, T/C (second compound 0.3 µM, first compound 0.1 µM): 95.3% | viability, T/C (second compound 0.3 µM, first compound 0.316 µM): 90.3% | viability, T/C (second compound 0.3 µM, first compound 1 µM): 117% | viability, T/C (second compound 0.3 µM, first compound 3.16 µM): 92.2% | viability, T/C (second compound 0.3 µM, first compound 10 µM): 5.39% | viability, T/C (second compound 0.949 µM, first compound 0.0316 µM): 104% | viability, T/C (second compound 0.949 µM, first compound 0.1 µM): 98.5% | viability, T/C (second compound 0.949 µM, first compound 0.316 µM): 107% | viability, T/C (second compound 0.949 µM, first compound 1 µM): 98.5% | viability, T/C (second compound 0.949 µM, first compound 3.16 µM): 89.8% | viability, T/C (second compound 0.949 µM, first compound 10 µM): 1.38% | viability, T/C (second compound 3 µM, first compound 0.0316 µM): 100% | viability, T/C (second compound 3 µM, first compound 0.1 µM): 96.7% | viability, T/C (second compound 3 µM, first compound 0.316 µM): 96.6% | viability, T/C (second compound 3 µM, first compound 1 µM): 109% | viability, T/C (second compound 3 µM, first compound 3.16 µM): 73.5% | viability, T/C (second compound 3 µM, first compound 10 µM): 12.8%

C=C(F)C(=O)N1CCN(c2nc(OCC3CCCN3C)nc3c2CCN(c2cccc4cccc(Cl)c24)C3)CC1CC#N (configuration not stated)
viability, T/C (compound 0.0316 µM): 85.9% and 98.6% and 98.2% | viability, T/C (compound 0.1 µM): 93.5% and 103% and 95.2% | viability, T/C (compound 0.316 µM): 82.5% and 88.7% and 91.7% | viability, T/C (compound 1 µM): 43.8% and 63.6% and 99.8% | viability, T/C (compound 3.16 µM): 6.98% and 7.87% and 29.6% | viability, T/C (compound 10 µM): 0.4% and 0.19% and 0.21% | IC50 (curve of compound): 0.836 µM and 1.3 µM and 2.22 µM
